Results reported in the supplement of paper PMC10307832.

How the values were obtained:
Assay in all cases: relative viability (nuclei count vs DMSO), 5 days (fraction); higher = more cells survive
Doramapimod + Decitabine = compound: Cc1ccc(-n2nc(C(C)(C)C)cc2NC(=O)Nc2ccc(OCCN3CCOCC3)c3ccccc23)cc1 [Doramapimod] + Nc1ncn([C@H]2C[C@H](O)[C@@H](CO)O2)c(=O)n1 [Decitabine] (partner 2 µM)
How it was run: (§1)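 Cells from lung cancer lines were seeded into 1536-well plates and, one day later, dosed by pin tool. Treatments were either a single drug or a fixed dose of an anchor drug with five library-drug doses (not always all listed) in √10 steps. After 5 days, nuclei were stained in a one-step fixation (final 0.05% Triton X-100, 1% formaldehyde, 1 ug/ml Hoechst) and counted on 4× images, and relative viability is the treated-to-vehicle nuclei ratio, as the median of duplicate plates.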

RAF265 + Vorinostat = compound: Cn1c(Nc2ccc(C(F)(F)F)cc2)nc2cc(Oc3ccnc(-c4ncc(C(F)(F)F)[nH]4)c3)ccc21 [RAF265] + O=C(CCCCCCC(=O)Nc1ccccc1)NO [Vorinostat] (partner 1 µM)
How it was run: as §1

RAF265 + Palbociclib = compound: Cn1c(Nc2ccc(C(F)(F)F)cc2)nc2cc(Oc3ccnc(-c4ncc(C(F)(F)F)[nH]4)c3)ccc21 [RAF265] + CC(=O)c1c(C)c2cnc(Nc3ccc(N4CCNCC4)cn3)nc2n(C2CCCC2)c1=O [Palbociclib] (partner 0.5 µM)
How it was run: as §1

Doramapimod + Alpelisib = compound: Cc1ccc(-n2nc(C(C)(C)C)cc2NC(=O)Nc2ccc(OCCN3CCOCC3)c3ccccc23)cc1 [Doramapimod] + Cc1nc(NC(=O)N2CCC[C@H]2C(N)=O)sc1-c1ccnc(C(C)(C)C(F)(F)F)c1 [Alpelisib] (partner 2 µM)
How it was run: as §1

| Cell Line | relative viability (Doramapimod + Decitabine; first compound 0.02 µM) | relative viability (Doramapimod + Decitabine; first compound 0.06325 µM) | relative viability (Doramapimod + Decitabine; first compound 0.2 µM) | relative viability (Doramapimod + Decitabine; first compound 0.6325 µM) | relative viability (Doramapimod + Decitabine; first compound 2 µM) | relative viability (RAF265 + Vorinostat; first compound 0.01 µM) | relative viability (RAF265 + Vorinostat; first compound 0.03162 µM) | relative viability (RAF265 + Vorinostat; first compound 0.1 µM) | relative viability (RAF265 + Vorinostat; first compound 0.3162 µM) | relative viability (RAF265 + Vorinostat; first compound 1 µM) | relative viability (RAF265 + Palbociclib; first compound 0.01 µM) | relative viability (RAF265 + Palbociclib; first compound 0.03162 µM) | relative viability (RAF265 + Palbociclib; first compound 0.1 µM) | relative viability (RAF265 + Palbociclib; first compound 0.3162 µM) | relative viability (RAF265 + Palbociclib; first compound 1 µM) | relative viability (Doramapimod + Alpelisib; first compound 0.02 µM) | relative viability (Doramapimod + Alpelisib; first compound 0.06325 µM) | relative viability (Doramapimod + Alpelisib; first compound 0.2 µM) | relative viability (Doramapimod + Alpelisib; first compound 0.6325 µM) | relative viability (Doramapimod + Alpelisib; first compound 2 µM) |
| --- | --- | --- | --- | --- | --- | --- | --- | --- | --- | --- | --- | --- | --- | --- | --- | --- | --- | --- | --- | --- |
| LU99A | 0.905 | 0.948 | 0.754 | 0.97 | 0.759 | 0.515 | 0.447 | 0.402 | 0.286 | 0.261 | 0.366 | 0.35 | 0.325 | 0.217 | 0.144 | 0.523 | 0.484 | 0.486 | 0.484 | 0.441 |
| NCI-H1666 | 0.768 | 0.792 | 0.83 | 0.659 | 0.755 | 1.13 | 0.923 | 0.906 | 0.99 | 0.854 | 0.612 | 0.577 | 0.595 | 0.663 | 0.585 | 0.834 | 1.01 | 0.882 | 1.03 | 1.01 |
| NCI-H2170 | 0.472 | 0.459 | 0.483 | 0.518 | 0.469 | 0.859 | 0.859 | 0.761 | 0.393 | 0.521 | 0.398 | 0.295 | 0.354 | 0.26 | 0.295 | 0.802 | 0.823 | 0.769 | 0.915 | 0.741 |
| NCI-H2342 | 0.653 | 0.807 | 0.686 | 0.673 | 0.74 | 0.714 | 0.809 | 0.851 | 0.667 | 0.764 | 0.582 | 0.547 | 0.558 | 0.468 | 0.474 | – | – | – | – | – |
| LCLC-97TM1 | 0.197 | 0.208 | 0.242 | 0.236 | 0.235 | 0.719 | 0.508 | 0.544 | 0.525 | 0.421 | 0.233 | 0.245 | 0.158 | 0.208 | 0.0796 | 0.205 | 0.221 | 0.275 | 0.266 | 0.212 |
| NCI-H1299 | – | – | – | – | – | – | – | – | – | – | – | – | – | – | – | 1.12 | 1.13 | 1.1 | 1.1 | 1.01 |
| Calu-6 | – | – | – | – | – | – | – | – | – | – | – | – | – | – | – | 1.05 | 0.924 | 0.866 | 1.16 | 0.986 |
| NCI-H1703 | – | – | – | – | – | – | – | – | – | – | – | – | – | – | – | 0.363 | 0.336 | 0.323 | 0.393 | 0.278 |
| NCI-H1650 | 0.412 | 0.409 | 0.515 | 0.409 | 0.283 | 0.615 | 0.587 | 0.595 | 0.655 | 0.566 | 0.385 | 0.319 | 0.418 | 0.278 | 0.277 | – | – | – | – | – |
| NCI-H1648 | 0.465 | 0.544 | 0.452 | 0.402 | 0.389 | 0.464 | 0.539 | 0.352 | 0.317 | 0.263 | 0.287 | 0.283 | 0.266 | 0.26 | 0.242 | – | – | – | – | – |
| NCI-H1792 | 0.462 | 0.532 | 0.505 | 0.571 | 0.47 | – | – | – | – | – | 0.658 | 0.676 | 0.758 | 0.474 | 0.298 | 0.606 | 0.658 | 0.578 | 0.713 | 0.521 |
| ChaGo-K-1 | 0.555 | 0.54 | 0.541 | 0.49 | 0.503 | 0.783 | 0.826 | 0.727 | 0.635 | 0.578 | 0.935 | 0.951 | 0.89 | 0.844 | 0.607 | – | – | – | – | – |
| CAL-12T | – | – | – | – | – | 0.781 | 0.825 | 0.61 | 0.606 | 0.372 | 0.622 | 0.488 | 0.364 | 0.27 | 0.178 | 1.1 | 1.05 | 1.21 | 1.41 | 1.09 |
| NCI-H2228 | – | – | – | – | – | 0.554 | 0.653 | 0.52 | 0.324 | 0.275 | 0.721 | 0.73 | 0.818 | 0.333 | 0.284 | 0.911 | 0.518 | 0.619 | 0.753 | 0.649 |
| NCI-H522 | 0.751 | 0.7 | 0.626 | 0.683 | 0.577 | 0.841 | 1.02 | 1.05 | 0.872 | 0.857 | 1.01 | 1.03 | 1.26 | 0.99 | 0.863 | – | – | – | – | – |
| SW 900 | 0.355 | 0.439 | 0.36 | 0.405 | 0.437 | 0.544 | 0.494 | 0.503 | 0.381 | 0.227 | 0.582 | 0.558 | 0.519 | 0.396 | 0.237 | – | – | – | – | – |
| NCI-H596 | 1 | 0.97 | 1.02 | 0.995 | 1 | 0.809 | 0.642 | 0.642 | 0.589 | 0.522 | – | – | – | – | – | 0.486 | 0.502 | 0.469 | 0.529 | 0.431 |
| IA-LM | – | – | – | – | – | 1.06 | 0.779 | 0.895 | 0.925 | 0.849 | – | – | – | – | – | 0.658 | 0.728 | 0.693 | 0.73 | 0.669 |
| A549 | 0.235 | 0.309 | 0.312 | 0.175 | 0.278 | – | – | – | – | – | – | – | – | – | – | 0.69 | 0.626 | 0.675 | 0.784 | 0.55 |
